Legend:
[1] = tested on: unselected gastric cancer patients; conditions: monotherapy; Jhawer et al., 2008; cited from earlier work
[2] = tested on: NCI-87 cells; type: cell-based, human; conditions: without altering total HER2 levels, FIG. 12
Description: (§1) Multiple Drug Effect Analysis: ˜1 X10^4 cells were plated in 24-well plate and grown in appropriate growth media. Lapatinib, cMET inhibitor or both agents (combo) were added at 1 μM concentration for 4 hrs and lysed for subsequent pathway profiling.
(§2) Immuno-microarray slides were rinsed 2× with TB ST (50 mM Tris/150 mM NaCl/0.1% Tween-20, pH 7.2-7.4), blocked with 80 μL Whatman Blocking Buffer lhr at RT, then washed 2× with TBST. Serially diluted lysate controls in 80 μL dilution buffer (2% BSA/0.1% TritonX-100/TBS, pH 7.2-7.4) and samples were added to designated sub-arrays on slides, then incubated 1 hour at RT. Slides were washed 4× (3 min. each), and detector Abs were added in 80 μL of reaction buffer and incubated for 2 hours at RT. After washing slides with TB ST to remove unbound detector Abs, 80 μL of biotin-tyramide solution (5 μg/m1 in 50 mM glucose/PBS) prepared from 400 μg/mL in ethanol solution (Perkin-Elmer Life Science) was added and incubated 15 min in darkness. Glucose-oxidase (GO)/HRP-mediated tyramide signal amplification process was terminated by washing with TBST 4×, 3 min each. Local deposition of biotin-tyramide was detected by incubation with streptavidin (SA)-Alexa647 (Invitrogen) at 0.5 μg/mL in 2% BSA/0.1% Triton/TBS for 40 min. Upon completion of incubation, slides were washed 4× with TBST, dried and kept in darkness until imaged via microarray scanner. […]

[3] = tested on: MET-amplified SNU484 cells; type: cell-based, human; conditions: FIG. 12
Description: as §1, §2

Structure (SMILES)	objective response [1]	HER2 activation [2]	HER2 activation [3]
COc1cc2c(Oc3ccc(NC(=O)C4(C(=O)Nc5ccc(F)cc5)CC4)cc3F)ccnc2cc1OCCCN1CCOCC1 [foretinib]	failed to demonstrate an objective response	–	–
CS(=O)(=O)CCNCc1ccc(-c2ccc3ncnc(Nc4ccc(OCc5cccc(F)c5)c(Cl)c4)c3c2)o1 [lapatinib]	–	abolished	unable to do so

Source: patent US20170285044A1, “METHODS FOR PREDICTING AND IMPROVING THE SURVIVAL OF GASTRIC CANCER PATIENTS” (Pierian Holdings, Inc., priority 2011, published 2017)
